Reference: patent publication US12516038B2, “Inhibitors of antigen presentation by HLA-DR” (Janssen Pharmaceutica NV, priority 2020, dated 2026)

Assays:
[1] = test system: human peripheral blood CD4+ helper T cells; test: Pan-CD4+ T cell activation (off-target assay); assay type: cell-based; settings: Homo sapiens, T-cell, 24 h, anti-CD3/anti-CD28 stimulation, IL-2 production by ELISA
Procedure, shortened: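 Human peripheral blood CD4+ T cells, with no APCs present, were stimulated with plate-bound anti-CD3 (1 μg/mL coating) plus soluble anti-CD28 (1 μg/mL) in the presence of compound or vehicle for 24 h. IL-2 in the supernatant was quantified by ELISA.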

[2] = test system: HLA-DR4 restricted mouse T cell hybridoma line (DR4.CII.36.8) with HLA-DRB1*04:01-expressing Boleth cells; test: HLA-DR4-restricted peptide-specific T cell-based assay (hybridoma assay); settings: Mus musculus, T-cell, 6 h, inhibition of IL-2 production, CII259-273 peptide presented by Boleth cells
Procedure, shortened: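 Boleth cells (HLA-DRB1*04:01 B cell line) pre-incubated with compound 1 h at 37° C. in DMEM/1% FCS, then DR4.CII.36.8 mouse T cell hybridoma (CII259-273-specific) added for 6 h with CII259-273 peptide. Supernatant mouse IL-2 by AlphaLISA; IC50 by 4-PL fit of 8-point duplicate titrations.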

[3] = target: HLA-DRB1*0401 (Homo sapiens (Human), UniProt P01903+P01911, A100K/A169T/DEL228-266/F76Y/I96L/K127E/L162R/M171V/N62H/P40V/Q125Y/R42H/S133A/S149N/S66Y/V115G/V209L/W38E); test: HLA-DR4 HTRF assay; assay type: binding; settings: inhibition of loading of Alexa Fluor 647-labeled Cit-CII peptide onto HLA-DR4 (CLIP cleaved)
Procedure, shortened: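 HLA-DRB1*04:01 construct (α/β fused to human Fc, CLIP pre-cleaved by HRV3C overnight at 4° C) at 3 nM was preincubated 45 min with compound and 1 nM anti-Fc-Tb donor, then 40 nM Alexa647-Cit-CII1236-1249 peptide added. After 90 min at 37° C, the 665/620 nm HTRF ratio gave % inhibition; IC50 by nonlinear regression.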

SMILES	IC50 [1] [µM]	IC50 [2] [µM]	IC50 [3] [µM]
N#Cc1c(O[C@H](c2ccncc2)c2ccc(C(N)=O)cc2)ccc2c1OCCC2=O (single isomer, unassigned) [Example 78b, (*S)-4-(((8-cyano-4-oxochroman-7-yl)oxy)(pyridin-4-yl)methyl)benzamide]	15	0.47	0.45
NC(=O)c1ccc([C@@H](Oc2ccc3c(c2-c2ccc(-c4ccccc4)cc2)OCCC3=O)c2ccncc2)cc1 (single isomer, unassigned) [Example 79a, (*R)-4-(((8-([1,1′-biphenyl]-4-yl)-4-oxochroman-7-yl)oxy)(pyridin-4-yl)methyl)benzamide]	3.1	0.47	28
NC(=O)c1ccc([C@H](Oc2ccc3c(c2-c2ccc(-c4ccccc4)cc2)OCCC3=O)c2ccncc2)cc1 (single isomer, unassigned) [Example 79b, (*S)-4-(((8-([1,1′-biphenyl]-4-yl)-4-oxochroman-7-yl)oxy)(pyridin-4-yl)methyl)benzamide]	> 15	0.97	49
CCCc1c(O[C@@H](c2ccncc2)c2ccc(C(N)=O)cc2)ccc2c1OCCC2=O (single isomer, unassigned) [Example 80a, (*R)-4-(((4-Oxo-8-propylchroman-7-yl)oxy)(pyridin-4-yl)methyl)benzamide]	5.9	0.032	0.66
Cc1c(O[C@H](c2ccncc2)c2cccc(CNC(N)=O)c2)ccc2c1OCCC2=O (single isomer, unassigned) [Example 81b, (*S)-1-(3-(((8-methyl-4-oxochroman-7-yl)oxy)(pyridin-4-yl)methyl)benzyl)urea]	> 15	1.3	0.61
CCOc1cc(C(N)=O)ccc1[C@H](Oc1ccc2c(c1C)OCCC2=O)c1ccncc1 (single isomer, unassigned) [Example 83a, (*R)-3-ethoxy-4-(((8-methyl-4-oxochroman-7-yl)oxy)(pyridin-4-yl)methyl)benzamide]	0.99	2.7	0.95
Cc1c(O[C@H](c2ccncc2)c2ccc(C(N)=O)cc2OC(C)C)ccc2c1OCCC2=O (single isomer, unassigned) [Example 84a, (*R)-3-isopropoxy-4-(((8-methyl-4-oxochroman-7-yl)oxy)(pyridin-4-yl)methyl)benzamide]	0.47	0.79	1.2
Cc1c(O[C@@H](c2ccncc2)c2ccc(C(N)=O)cc2OC(C)C)ccc2c1OCCC2=O (single isomer, unassigned) [Example 84b, (*S)-3-isopropoxy-4-(((8-methyl-4-oxochroman-7-yl)oxy)(pyridin-4-yl)methyl)benzamide]	1.7	6.5	< 1
Cc1c(O[C@H](c2ccncc2)c2ccc(C(N)=O)cc2OCC(C)C)ccc2c1OCCC2=O (single isomer, unassigned) [Example 85a, (*R)-3-isobutoxy-4-(((8-methyl-4-oxochroman-7-yl)oxy)(pyridin-4-yl)methyl)benzamide]	3.7	0.24	0.81
Cc1c(O[C@@H](c2ccncc2)c2ccc(C(N)=O)cc2OCC(C)C)ccc2c1OCCC2=O (single isomer, unassigned) [Example 85b, (*S)-3-isobutoxy-4-(((8-methyl-4-oxochroman-7-yl)oxy)(pyridin-4-yl)methyl)benzamide]	0.47	3.9	1.1
Cc1c(O[C@H](c2ccncc2)c2ccc(C(N)=O)cc2OCc2ccccc2)ccc2c1OCCC2=O (single isomer, unassigned) [Example 86a, (*R)-3-(benzyloxy)-4-(((8-methyl-4-oxochroman-7-yl)oxy)(pyridin-4-yl)methyl)benzamide]	2.5	0.072	0.74
Cc1c(O[C@@H](c2ccncc2)c2ccc(C(N)=O)cc2OCc2ccccc2)ccc2c1OCCC2=O (single isomer, unassigned) [Example 86b, (*S)-3-(benzyloxy)-4-(((8-methyl-4-oxochroman-7-yl)oxy)(pyridin-4-yl)methyl)benzamide]	1.4	1.7	1
Cc1c(O[C@H](c2ccc(C(N)=O)cc2)c2ccnc(CCC(=O)O)c2)ccc2c1OCCC2=O (single isomer, unassigned) [Example 87a]	> 15	0.83	0.58
Cc1cc2c(c(C)c1O[C@@H](c1ccncc1)c1ccc(C#N)cc1)OCCC2=O (single isomer, unassigned) [Example 88a, (*R)-4-(((6,8-dimethyl-4-oxochroman-7-yl)oxy)(pyridin-4-yl)methyl)benzonitrile]	> 15	2.2	0.4
Cc1cc2c(c(C)c1O[C@H](c1ccncc1)c1ccc(C#N)cc1)OCCC2=O (single isomer, unassigned) [Example 88b, (*S)-4-(((6,8-dimethyl-4-oxochroman-7-yl)oxy)(pyridin-4-yl)methyl)benzonitrile]	9.9	5.9	0.36
Cc1cc2c(c(C)c1O[C@@H](c1ccncc1)c1ccc(C(N)=O)cc1)OCCC2=O (single isomer, unassigned) [Example 89a, (*R)-4-(((6,8-dimethyl-4-oxochroman-7-yl)oxy)(pyridin-4-yl)methyl)benzamide]	4.7	1.8	0.47
Cc1cc2c(c(C)c1O[C@H](c1ccncc1)c1ccc(C(N)=O)cc1)OCCC2=O (single isomer, unassigned) [Example 89b, (*S)-4-(((6,8-dimethyl-4-oxochroman-7-yl)oxy)(pyridin-4-yl)methyl)benzamide]	4.7	1.2	0.47
Cc1c(O[C@H](c2ccc(C(N)=O)cc2)c2cccc(C#N)c2)c(F)cc2c1OCCC2=O (single isomer, unassigned) [Example 92a, (*R)-4-((3-cyanophenyl)((6-fluoro-8-methyl-4-oxochroman-7-yl)oxy)methyl)benzamide]	9.9	0.31	0.3
Cc1cc([C@H](Oc2c(F)cc3c(c2C)OCCC3=O)c2ccc(C(N)=O)cc2)cc(C)n1 (single isomer, unassigned) [Example 94a, (*R)-4-((2,6-dimethylpyridin-4-yl)((6-fluoro-8-methyl-4-oxochroman-7-yl)oxy)methyl)benzamide]	9.9	0.047	0.22
Cc1cc([C@@H](Oc2c(F)cc3c(c2C)OCCC3=O)c2ccc(C(N)=O)cc2)cc(C)n1 (single isomer, unassigned) [Example 94b, (*S)-4-((2,6-dimethylpyridin-4-yl)((6-fluoro-8-methyl-4-oxochroman-7-yl)oxy)methyl)benzamide]	9.9	0.89	0.23
CCc1cc(O[C@@H](c2ccncc2)c2ccc(C(N)=O)cc2)cc2c1C(=O)CCO2 (single isomer, unassigned) [Example 99a, (*R)-4-(((5-ethyl-4-oxochroman-7-yl)oxy)(pyridin-4-yl)methyl)benzamide]	3.1	0.59	42
